Our source for the TGI and GI50 values is PubChem BioAssay (NCI).

“And” between values parts separate entries of the source, which are not always exact repeats. Equal entries are not always repeated.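 All cell lines were grown in 96-well plates and treated with compound for 48 hours. Abbreviation: GI50, concentration required for 50% inhibition of growth. TGI denotes the concentration required for complete inhibition of growth.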

Assay in all cases: NCI-60 cell line screen, 48 h
The subject of assay [1] is NCI-H460 lung.
For assay [2], the system named is KM12 colon.
For assay [3], the system named is CCRF-CEM leukemia.
In assay [4] the test system is SK-OV-3 ovarian.
The test system of assay [5] is OVCAR-8 ovarian.
The subject of assay [6] is RXF 393 renal.
Assay [7] deals with NCI-H226 lung.
Assay [8] relates to SR leukemia.
Assay [9] concerns NCI-H23 lung.
Assay [10] deals with HOP-62 NSCLC.

For the compound `O=C1C=C(Nc2ccccc2C(=O)CC(=O)C(=O)Nc2ccc(Cl)cc2)c2ccccc2C1=O`, the TGI in assay [1] amounted to 34.7 µM; in [2], 54.6 µM; in assay [3], 33.1 µM; in assay [4] it was 76.1 µM; in assay [5], 37.4 µM; in assay [6], 45.9 µM. The TGI in [7] is more than 56.6 µM; in [8], more than 100 µM; in assay [9], 29.6 µM; in [10] it was 44.5 µM.
As for `CN(C)C1CCN(Cc2ccc(NC(=O)c3cncc(C#Cc4cnc(N)c5ncccc45)c3)cc2C(F)(F)F)CC1`, the GI50 in assay [1] was 1.12 µM; in [2], 0.236 µM; in assay [3], 1.54 µM; in [5] it was 9.11 µM; in [6] it was 1.9 µM; in assay [8], 2.05 µM. Also, the values for the GI50 in assay [9] and in assay [10] were 7.9 µM and 9.34 µM, respectively. Besides, the TGI in assay [1] was 2.5 µM; in assay [2], 6.88 µM; in [3] it was 6.07 µM; in assay [5] it was 29 µM; in [6], 7.67 µM; in assay [8], 50 µM. Further, the TGI in assay [9] was 19.9 µM; in assay [10] it was 26.4 µM.
For the compound `COc1cc2c(NCCCCCO)ncnc2c(OC)c1OC`, the TGI in assay [1], in assay [2], in assay [3], in [4], in [5] and in assay [6] was more than 100 µM each time. Also, the TGI in [7], in [8], in assay [9] and in [10] was more than 100 µM each time.
With `COC(=O)c1ccc2nc(-c3cc4ccccc4n3C)n(CCCCOc3cc4c(cc3OC)C(=O)N3CCC[C@H]3C=N4)c2c1`, the GI50 was 0.561 µM in assay [1]; 0.255 µM in assay [2]; 2.53 µM in [3]; 1.86 µM in [4]; 0.8 µM in assay [5]; 0.687 µM in assay [6]. Moreover, the GI50 was 1.23 µM in assay [7], 0.643 µM in assay [8], 0.485 µM in [9] and 0.905 µM in assay [10]. Further, the TGI in [1] was 1.55 µM; in assay [2], 0.787 µM; in [3], more than 100 µM; in assay [4], 4.67 µM; in assay [5] it was 7.25 µM; in [6], 2.27 µM. In addition, the TGI in assay [7] was 8.04 µM; in [8] it was more than 100 µM; in assay [9] it was 1.21 µM; in assay [10], 3.76 µM.
On to `Cc1ccc(F)c(NC(=O)Nc2ccc(-c3cccc4[nH]nc(N)c34)cc2)c1`, for which the GI50 in assay [1] is 2.42 µM and 2.76 µM; in assay [2], 1.64 µM and 1.55 µM; in [3], 2.9 µM and 3.4 µM; in [4] it was 10.5 µM; in assay [5], 3.25 µM and 3.08 µM; in assay [6], 1.96 µM and 1.92 µM. For the same compound, the GI50 in assay [7] is 5.88 µM and 6.06 µM; in [8] it was 2.62 µM and 1.87 µM; in assay [9], 2.4 µM and 3.41 µM; in [10] it was 4.07 µM and 3.12 µM. Moreover, the TGI in assay [1] was 5.94 µM and 8.32 µM; in assay [2] it was 4.94 µM and 5.79 µM; in assay [3], 9.29 µM and > 10 µM; in assay [4], 23.5 µM and > 10 µM; in assay [5], 18 µM and > 10 µM; in assay [6], 4.34 µM and 4.96 µM. The TGI in assay [7] was 20.5 µM and > 10 µM; in assay [8], 8.37 µM and 5.45 µM; in [9] it was 6.17 µM and > 10 µM; in assay [10], 16.2 µM and > 10 µM.
As to `O=C1/C(=C/c2ccc([N+](=O)[O-])s2)Oc2cc(Cl)ccc21`, the GI50 in [1] was 1.84 µM; in [2], 0.758 µM; in assay [3] it was 0.325 µM; in [4], 23.5 µM; in assay [5], 0.469 µM; in [6] it was 1.04 µM. The GI50 was 3.83 µM in assay [7], 0.303 µM in [8] and 7.9 µM in assay [10]. Moreover, the TGI was more than 100 µM in assay [1]; 4.56 µM in assay [2]; 1.48 µM in assay [3]; more than 100 µM in assay [4]; 2.59 µM in assay [5]; 2.63 µM in [6]. For the same compound, the TGI was more than 21.8 µM in [7], 1.24 µM in assay [8] and more than 100 µM in [10].
With `OCC1OC2c3ccccc3COC2C1OCc1ccccc1` (stereo not drawn), the TGI in [1], in assay [2], in assay [4], in assay [5], in assay [6] and in assay [7] was more than 100 µM in each case. Also, the TGI in assay [8] and in assay [9] was more than 100 µM throughout.
Consider `CC(c1cc(Cl)ccc1O)c1cc(Cl)ccc1O`, for which the GI50 in [1] is 2.26 µM; in assay [2] it was 3.22 µM; in assay [4], 13.4 µM; in [5], 4.04 µM; in assay [6], 3.42 µM; in [7], 12 µM. Further, the GI50 is 2.59 µM in [8], 2.83 µM in assay [9] and 3.76 µM in assay [10]. Besides, the TGI in assay [1] turned out to be 4.88 µM; in assay [2], 10.2 µM; in assay [4], 26.4 µM; in assay [5], 19.9 µM; in assay [6], 9.7 µM; in [7], 43.5 µM. Also, the TGI in assay [8] came to 9.95 µM; in assay [9] it was 8.32 µM; in assay [10], 17.5 µM.
Consider `O=C([O][Hg][c]1ccccc1)c1ccccc1`, for which the GI50 was 2.6 µM in assay [1]; 11.6 µM in [2]; 0.324 µM in [3]; 4.03 µM in [4]; 1.24 µM in [6]; 2.41 µM in [7]. The values for the GI50 in [8], in assay [9] and in [10] were 0.382 µM, 2.05 µM and 2.16 µM, respectively. For the same compound, the TGI in assay [1] turned out to be 9.27 µM; in assay [2], 24.1 µM; in [3] it was 2.24 µM; in assay [4] it was 11.9 µM; in [6] it was 2.56 µM; in assay [7], 6.18 µM. The TGI in [8] was determined as 2.35 µM; in [9], 4.84 µM; in [10] it was 4.84 µM.
Regarding `COc1cc2c3c(n(CCCN(CCCN(CCCn4c5c(c6ccccc6c4=O)C(=O)c4ccccc4-5)C(=O)OC(C)(C)C)C(=O)OC(C)(C)C)c(=O)c2cc1OC)-c1cc2c(cc1C3=O)OCO2`, the GI50 in assay [1] was 21.5 µM; in assay [2] it was more than 100 µM; in assay [4], more than 100 µM; in assay [5], more than 100 µM; in [6] it was more than 100 µM; in assay [8], 33.6 µM. Besides, the GI50 in assay [9] and in [10] was more than 100 µM in each case. The TGI in [1], in [2], in assay [4], in assay [5], in [6] and in assay [8] was more than 100 µM throughout. Further, the TGI in assay [9] and in assay [10] was more than 100 µM each time.
`Cc1ccc([Se](=C(C(=O)c2ccccc2)C(=O)c2ccccc2)c2ccc(C)cc2)cc1`: the TGI in assay [1] was more than 100 µM; in assay [2] it was 44.1 µM; in [4], more than 100 µM; in [5], more than 100 µM; in [6], more than 100 µM; in assay [7], 56.7 µM. Further, the TGI was 33.2 µM in assay [8], 59.2 µM in assay [9] and more than 100 µM in [10].
As for `O=[N+]([O-])c1ccc(/C=C/c2nc3ccc(Cl)cc3[nH]2)cc1`, the GI50 in [1] is 17.8 µM; in [2] it was 5.6 µM; in assay [4], more than 100 µM; in [5] it was 24.5 µM; in [6] it was 71.7 µM; in assay [7], 45.9 µM. Moreover, the GI50 in [8] is 4.95 µM; in [9], 54.5 µM; in [10] it was 37.7 µM. Besides, the TGI in [1] is 84.9 µM; in [2] it was more than 100 µM; in [4] it was more than 100 µM; in assay [5], 63.6 µM; in [6] it was more than 100 µM; in assay [7], more than 100 µM. For the same compound, the TGI in assay [8], in assay [9] and in [10] was more than 100 µM throughout.
For `COC(=O)C1CSC(c2csc(CCN)n2)=N1` (stereo not drawn), the TGI in assay [1], in assay [2], in assay [3], in assay [4], in [5] and in assay [6] was more than 100 µM throughout. For the same compound, the TGI in [7], in [8] and in assay [9] was more than 100 µM each time.
In the case of `CC1(C)CC(=O)C=C(/C=C/Sc2c(Cl)c(Cl)nc(Cl)c2Cl)C1`, the GI50 was 11.8 µM in assay [1]; 11.6 µM in [2]; 19.9 µM in assay [4]; 19.3 µM in assay [5]; 7.61 µM in assay [6]; 12.7 µM in assay [7]. Further, the results for the GI50 in assay [8], in assay [9] and in [10] were 3.89 µM, 6.34 µM and 12.9 µM, respectively. Further, the TGI turned out to be 32.1 µM in assay [1]; 26.2 µM in assay [2]; 34.8 µM in [4]; 45 µM in assay [5]; 22 µM in assay [6]; 29 µM in assay [7]. Besides, the TGI in [8] was more than 100 µM; in [9] it was 19.3 µM; in [10] it was 27.8 µM.
